{"source": "patent US12083227B2", "about": "“Solid pharmaceutical formulations for treating endometriosis, uterine fibroids, polycystic ovary syndrome or adenomyosis” (priority 2017, dated 2024)", "format_in_all_cases": "in vivo, human", "key": {"[1]": {"system": "fatigue in women with moderate to severe endometriosis-related pain", "test": "Phase III study of fatigue (PROMIS Fatigue SF-6a) in endometriosis pain", "experimental": "A Phase III study was conducted to assess the effects of elagolix for clinically meaningful reductions in pain and other symptoms. Data provided examined the impact of elagolix on fatigue in women with moderate to severe endometriosis-related pain. […] Fatigue was assessed using the Patient Reported Outcome Measurement Information System (PROMIS®), Fatigue Short Form (SF) 6a. Six items assessed a range of self-reported symptoms from mild, subjective feelings of tiredness to overwhelming, sustained sense of exhaustion that likely decreases one's ability to execute daily activities and function normally. The domain was divided into the experience of fatigue (frequency, duration and intensity) and impact of fatigue on physical, mental and social activities. All items assessed fatigue over the previous seven days. Responses to each question was filed on a 5-item Likert scale: 1—“Not at all”; 2—“A little bit”; 3—“Somewhat”; 4—“Quite a bit”; and 5—“Very much.” The questionnaire was administered at baseline and months 1, 3, and 6. Lower scores indicated less fatigue. Post-hoc, Fatigue SF-6a raw scores were converted to T-scores. The T-score rescales […] the raw score into a standardized score such that the general population has a mean of 50 and a standard deviation (SD) of 10. Analysis: […] ANCOVA controlled for treatment as main effect. Baseline Fatigue SF-6a T-score included as a covariate."}, "[2]": {"test": "pharmacokinetic properties of elagolix in healthy subjects", "conditions": "minor pathways include CYP2D6, CYP2C8 and UGTs"}, "[3]": {"system": "endometriosis with associated pain in premenopausal women", "test": "Study EM-I (placebo-controlled) and its extension", "conditions": "Month 6 and Month 12", "from_the_text": "Each placebo-controlled study assessed the reduction in endometriosis-associated pain over 6 months of treatment. More than 75 percent of women who completed Study EM-I and EM-II enrolled in the extension studies for an additional 6 month treatment period. Subjects were followed for up to 12 months post-treatment. The co-primary efficacy endpoints were the proportion of responders for dysmenorrhea and pelvic pain not related to menses (also known as non-menstrual pelvic pain [NMPP]) at Month 3 compared to placebo. The primary analysis independently evaluated these endpoints using a daily diary that asked patients to assess their pain and its impact on their daily activities, over the previous 24 hours. […] Women were defined as responders if they experienced clinically meaningful reduction in dysmenorrhea and/or NMPP with no increased analgesic use for endometriosis associated pain. Dyspareunia was evaluated as a secondary endpoint using the Daily Endometriosis Pain Impact Scale. Endometrial biopsies were performed in subjects in Study EM-I and its extension at Month 6 and Month 12."}, "[4]": {"test": "pharmacokinetics in specific populations (renal and hepatic impairment)", "from_the_text": "The mean exposures are similar for women with moderate to severe or end stage renal disease (including women on dialysis) compared to women with normal renal function.\nElagolix exposures (Cmax and AUC) are similar between women with normal hepatic function and women with mild hepatic impairment. Elagolix exposures in women with moderate and severe hepatic impairment are approximately 3-fold and 7-fold, respectively, of exposures from women with normal hepatic function."}, "[5]": {"system": "ovulation and endometrial thickness in healthy women", "test": "3-menstrual cycle study in healthy women", "conditions": "transvaginal ultrasound, 150 mg QD and 200 mg BID"}}}
{"compound": "COc1cccc(-c2c(C)n(Cc3c(F)cccc3C(F)(F)F)c(=O)n(C[C@H](NCCCC(=O)O)c3ccccc3)c2=O)c1F", "note": "[elagolix, 4-((R)-2-[5-(2-fluoro-3-methoxy-phenyl)-3-(2-fluoro-6-trifluoromethyl-benzyl)-4-methyl-2,6-dioxo-3,6-dihydro-2H-pyrimidin-1-yl]-1-phenyl-ethylamino)-butyric acid]", "values": [{"measurement": "reduction in fatigue (PROMIS Fatigue SF-6a T-Score)", "setting": "[1]; 200 mg, as early as Month 1", "result": "statistically significant reduction"}, {"measurement": "PROMIS Fatigue SF-6a T-Score relative to placebo", "setting": "[1]; both doses (150 mg QD, 200 mg BID) at Months 3 and 6", "result": "Statistically significant reductions"}, {"measurement": "Metabolism", "setting": "[2]", "result": "CYP3A (major) Minor"}, {"measurement": "endometrial biopsy findings post-baseline (hyperplasia or cancer)", "setting": "[3]", "result": "no abnormal biopsy findings"}, {"measurement": "exposures in moderate hepatic impairment relative to normal hepatic function", "setting": "[4]; moderate hepatic impairment", "result": "approximately 3 fold"}, {"measurement": "exposures (Cmax and AUC) in renal impairment", "setting": "[4]; moderate to severe or end stage renal disease vs normal renal function", "result": "not altered"}, {"measurement": "exposures in severe hepatic impairment relative to normal hepatic function", "setting": "[4]", "result": "approximately 7 fold"}, {"measurement": "exposures in severe hepatic impairment relative to normal hepatic function", "setting": "[4]; listed as Elagolix", "result": "~7", "unit": "fold"}, {"measurement": "exposures (Cmax and AUC) in mild hepatic impairment", "setting": "[4]; vs women with normal hepatic function", "result": "similar"}, {"measurement": "mean endometrial thickness compared to the pretreatment values", "setting": "[5]", "result": "dose dependent decrease"}]}
